Source: patent publication US20050054555A1, “Kahalalide compounds for use in cancer therapy” (priority 2001, published 2005)

Key:
[1] = system: patients with advanced or metastatic prostate cancer; assay: Phase I trial KHF-A-001-00: safety of kahalalide F daily x 5 over 1 hour infusion every 21 days; format: in vivo, human
Description: The rate of subject entry and escalation to the next dose level will depend upon assessment of the safety profile of patients entered at each dose level. Toxicity will be evaluated and graded according to the Common Toxicity Criteria, version 2.0.
In order to minimize the number of patients treated at the subtoxic dose levels, a single patient will be treated per dose level with 100% dose escalation in the absence of any toxicity G2 (excluding alopecia) during their first course of treatment. After the occurrence of grade 2 toxicity (excluding asthenia, alopecia, nausea and vomiting or anemia), the dose level is expanded to three patients with only 50% incremental increase in dosage in advancing to the next dose level. For the occurrence of grade 3 non-hematological toxic effects the dose level should be expanded up to six patients. This second cohort of 3 patients will be included consecutively. If the first or second patient develops dose limiting toxicities no further patients will be treated at this dose level, it will be defined as MTD and the accrual will begin at a lower dose level. If only one DLT occurs at this dose level another 3 patients will be included at the next dose level with an increase of 25% only.
There is no intrapatient dose escalation, only de-escalation. If the toxicity is grade 3 or worse in a course of chemotherapy, then the dose is reduced one level for the next course.
The maximum tolerated dose (MTD) is defined as the dose at which at least 2 out of 3 or more than 3 patients experience DLT. However, it is possible that additional patients may experience DLT due to the timing of patient enrollment into that dose level.
Dose limiting toxicities (DLTs) are defined as follows: […]
Grade IV Neutropenia lasting for >5 days or with a temperature >38.5.
Grade IV thrombocytopenia.
Any other grade III or IV non hematological toxicity, excluding nausea, emesis and hypersensitivity reactions.
Grade III or IV liver toxicity if not reversible by day 21.
These toxicities are only considered DLTs if they happen during cycle 1. […]
A dose of 20 mcg/m2 was considered a safe starting dose on the basis of acute toxicity studies in animals. The trial was designed as an accelerated dose escalation (pharmacokinetically guided).

[2] = Phase I trial KHF-A-001-00: plasma pharmacokinetics (LC-MS/MS); format: in vivo, human
Procedure: Bioanalysis of KF was performed by LC-MS/MS.

[3] = 19 patients, daily x5 every 21 days, all dose levels
[4] = 20 patients, daily x5 every 21 days, all dose levels
[5] = 20 patients, daily x5 every 21 days, all dose levels, calcium adjusted
[6] = 20 patients, daily x5 every 21 days, all dose levels, not drug-related

C/C=C1\NC(=O)[C@H](Cc2ccccc2)NC(=O)[C@@H](C(C)C)NC(=O)[C@@H](C(C)CC)NC(=O)[C@H](NC(=O)C(NC(=O)[C@H](CCCN)NC(=O)[C@H]2CCCN2C(=O)[C@H](NC(=O)[C@@H](NC(=O)[C@@H](NC(=O)[C@H](NC(=O)CCCC(C)C)C(C)C)C(C)O)C(C)C)C(C)C)C(C)CC)C(C)OC(=O)[C@H](C(C)C)NC1=O (single isomer, unassigned) [kahalalide F]
only drug related toxicity to date ([1]; 320 μg/m2/day, rapidly reversible, preliminary report, 7 patients): CTC grade 3 ASAT | Hematologic toxicity (worst per patient): Hemoglobin, Grade 1 [1, 3]: 63.2% | Hematologic toxicity (worst per patient): Hemoglobin, Grade 2 [1, 3]: 26.3% | Hematologic toxicity (worst per patient): Hemoglobin, Grade 3 [1, 3]: 0% | Hematologic toxicity (worst per patient): Hemoglobin, Grade 4 [1, 3]: 0% | Hematologic toxicity (worst per patient): Leukocytes, Grade 1 [1, 3]: 10.5% | Hematologic toxicity (worst per patient): Leukocytes, Grade 2 [1, 3]: 0% | Hematologic toxicity (worst per patient): Leukocytes, Grade 3 [1, 3]: 0% | Hematologic toxicity (worst per patient): Leukocytes, Grade 4 [1, 3]: 0% | Hematologic toxicity (worst per patient): Neutrophils, Grade 1 [1, 3]: 5% | Hematologic toxicity (worst per patient): Neutrophils, Grade 2 [1, 3]: 5% | Hematologic toxicity (worst per patient): Neutrophils, Grade 3 [1, 3]: 0% | Hematologic toxicity (worst per patient): Neutrophils, Grade 4 [1, 3]: 0% | Hematologic toxicity (worst per patient): Platelets, Grade 1 [1, 3]: 21.1% | Hematologic toxicity (worst per patient): Platelets, Grade 2 [1, 3]: 0% | Hematologic toxicity (worst per patient): Platelets, Grade 3 [1, 3]: 0% | Hematologic toxicity (worst per patient): Platelets, Grade 4 [1, 3]: 0% | Most frequently reported non-hematologic toxicities: Diarrhea, Grade 1 [1, 4]: 10 | Most frequently reported non-hematologic toxicities: Diarrhea, Grade 2 [1, 4]: 5 | Most frequently reported non-hematologic toxicities: Diarrhea, Grade 3 [1, 4]: 0 | Most frequently reported non-hematologic toxicities: Diarrhea, Grade 4 [1, 4]: 0 | Most frequently reported non-hematologic toxicities: Fatigue, Grade 1 [1, 4]: 35 | Most frequently reported non-hematologic toxicities: Fatigue, Grade 2 [1, 4]: 10 | Most frequently reported non-hematologic toxicities: Fatigue, Grade 3 [1, 4]: 25 | Most frequently reported non-hematologic toxicities: Fatigue, Grade 4 [1, 4]: 0 | Most frequently reported non-hematologic toxicities: Hypersensitivity, Grade 1 [1, 4]: 20 | Most frequently reported non-hematologic toxicities: Hypersensitivity, Grade 2 [1, 4]: 5 | Most frequently reported non-hematologic toxicities: Hypersensitivity, Grade 3 [1, 4]: 0 | Most frequently reported non-hematologic toxicities: Hypersensitivity, Grade 4 [1, 4]: 0 | Most frequently reported non-hematologic toxicities: Inject-site reaction, Grade 1 [1, 4]: 10 | Most frequently reported non-hematologic toxicities: Inject-site reaction, Grade 2 [1, 4]: 20 | Most frequently reported non-hematologic toxicities: Inject-site reaction, Grade 3 [1, 4]: 0 | Most frequently reported non-hematologic toxicities: Inject-site reaction, Grade 4 [1, 4]: 0 | Most frequently reported non-hematologic toxicities: Nausea, Grade 1 [1, 4]: 15 | Most frequently reported non-hematologic toxicities: Nausea, Grade 2 [1, 4]: 10 | Most frequently reported non-hematologic toxicities: Nausea, Grade 3 [1, 4]: 0 | Most frequently reported non-hematologic toxicities: Nausea, Grade 4 [1, 4]: 0 | Most frequently reported non-hematologic toxicities: Periph-sens neuro, Grade 1 [1, 4]: 20 | Most frequently reported non-hematologic toxicities: Periph-sens neuro, Grade 2 [1, 4]: 0 | Most frequently reported non-hematologic toxicities: Periph-sens neuro, Grade 3 [1, 4]: 5 | Most frequently reported non-hematologic toxicities: Periph-sens neuro, Grade 4 [1, 4]: 0 | Most frequently reported non-hematologic toxicities: Vomiting, Grade 1 [1, 4]: 15 | Most frequently reported non-hematologic toxicities: Vomiting, Grade 2 [1, 4]: 10 | Most frequently reported non-hematologic toxicities: Vomiting, Grade 3 [1, 4]: 0 | Most frequently reported non-hematologic toxicities: Vomiting, Grade 4 [1, 4]: 0 | Non-hematologic toxicity, lab abnormalities per patient: Albumin, Grade 1 [1, 4]: 30% | Non-hematologic toxicity, lab abnormalities per patient: Albumin, Grade 2 [1, 4]: 10% | Non-hematologic toxicity, lab abnormalities per patient: Albumin, Grade 3 [1, 4]: 5% | Non-hematologic toxicity, lab abnormalities per patient: Albumin, Grade 4 [1, 4]: 0% | Non-hematologic toxicity, lab abnormalities per patient: Bilirubin, Grade 1 [1, 4]: 10% | Non-hematologic toxicity, lab abnormalities per patient: Bilirubin, Grade 2 [1, 4]: 0% | Non-hematologic toxicity, lab abnormalities per patient: Bilirubin, Grade 3 [1, 4]: 0% | Non-hematologic toxicity, lab abnormalities per patient: Bilirubin, Grade 4 [1, 4]: 0% | Non-hematologic toxicity, lab abnormalities per patient: CPK, Grade 1 [1, 4]: 35% | Non-hematologic toxicity, lab abnormalities per patient: CPK, Grade 2 [1, 4]: 0% | Non-hematologic toxicity, lab abnormalities per patient: CPK, Grade 3 [1, 4]: 0% | Non-hematologic toxicity, lab abnormalities per patient: CPK, Grade 4 [1, 4]: 0% | Non-hematologic toxicity, lab abnormalities per patient: Creatinine, Grade 1 [1, 4]: 35% | Non-hematologic toxicity, lab abnormalities per patient: Creatinine, Grade 2 [1, 4]: 0% | Non-hematologic toxicity, lab abnormalities per patient: Creatinine, Grade 3 [1, 4]: 0% | Non-hematologic toxicity, lab abnormalities per patient: Creatinine, Grade 4 [1, 4]: 0% | Non-hematologic toxicity, lab abnormalities per patient: GGT, Grade 1 [1, 4]: 35% | Non-hematologic toxicity, lab abnormalities per patient: GGT, Grade 2 [1, 4]: 15% | Non-hematologic toxicity, lab abnormalities per patient: GGT, Grade 3 [1, 4]: 25% | Non-hematologic toxicity, lab abnormalities per patient: GGT, Grade 4 [1, 4]: 5% | Non-hematologic toxicity, lab abnormalities per patient: GOT, Grade 1 [1, 4]: 40% | Non-hematologic toxicity, lab abnormalities per patient: GOT, Grade 2 [1, 4]: 15% | Non-hematologic toxicity, lab abnormalities per patient: GOT, Grade 3 [1, 4]: 15% | Non-hematologic toxicity, lab abnormalities per patient: GOT, Grade 4 [1, 4]: 10% | Non-hematologic toxicity, lab abnormalities per patient: GPT, Grade 1 [1, 4]: 15% | Non-hematologic toxicity, lab abnormalities per patient: GPT, Grade 2 [1, 4]: 25% | Non-hematologic toxicity, lab abnormalities per patient: GPT, Grade 3 [1, 4]: 20% | Non-hematologic toxicity, lab abnormalities per patient: GPT, Grade 4 [1, 4]: 10% | Non-hematologic toxicity, lab abnormalities per patient: Hypo P, Grade 1 [1, 4]: 10% | Non-hematologic toxicity, lab abnormalities per patient: Hypo P, Grade 2 [1, 4]: 15% | Non-hematologic toxicity, lab abnormalities per patient: Hypo P, Grade 3 [1, 4]: 0% | Non-hematologic toxicity, lab abnormalities per patient: Hypo P, Grade 4 [1, 4]: 0% | Non-hematologic toxicity, lab abnormalities per patient: HypoK+, Grade 1 [1, 4]: 20% | Non-hematologic toxicity, lab abnormalities per patient: HypoK+, Grade 2 [1, 4]: 0% | Non-hematologic toxicity, lab abnormalities per patient: HypoK+, Grade 3 [1, 4]: 0% | Non-hematologic toxicity, lab abnormalities per patient: HypoK+, Grade 4 [1, 4]: 0% | Non-hematologic toxicity, lab abnormalities per patient: HypoNa+, Grade 1 [1, 4]: 10% | Non-hematologic toxicity, lab abnormalities per patient: HypoNa+, Grade 2 [1, 4]: 0% | Non-hematologic toxicity, lab abnormalities per patient: HypoNa+, Grade 3 [1, 4]: 5% | Non-hematologic toxicity, lab abnormalities per patient: HypoNa+, Grade 4 [1, 4]: 5% | Non-hematologic toxicity, lab abnormalities per patient: HypoCa*, Grade 1 [1, 5]: 65% | Non-hematologic toxicity, lab abnormalities per patient: HypoCa*, Grade 2 [1, 5]: 0% | Non-hematologic toxicity, lab abnormalities per patient: HypoCa*, Grade 3 [1, 5]: 0% | Non-hematologic toxicity, lab abnormalities per patient: HypoCa*, Grade 4 [1, 5]: 0% | Most frequently reported non-hematologic toxicities: Hypertension, Grade 1 [1, 6]: 0 | Most frequently reported non-hematologic toxicities: Hypertension, Grade 2 [1, 6]: 0 | Most frequently reported non-hematologic toxicities: Hypertension, Grade 3 [1, 6]: 15 | Most frequently reported non-hematologic toxicities: Hypertension, Grade 4 [1, 6]: 0 | Non-hematologic toxicity, lab abnormalities per patient: Alk. phosphatase, Grade 1 [1, 6]: 35% | Non-hematologic toxicity, lab abnormalities per patient: Alk. phosphatase, Grade 2 [1, 6]: 20% | Non-hematologic toxicity, lab abnormalities per patient: Alk. phosphatase, Grade 3 [1, 6]: 25% | Non-hematologic toxicity, lab abnormalities per patient: Alk. phosphatase, Grade 4 [1, 6]: 5% | Worst toxicity ([1]; Level I, dose 20 mcg/m2, 1 patient): none | Worst toxicity ([1]; Level II, dose 40, 1 patient): none | Worst toxicity ([1]; Level III, dose 80, 1 patient): none | Worst toxicity ([1]; Level IV, dose 160, 1 patient): none | Worst toxicity ([1]; Level VI, dose 425, 3 patients): none | Worst toxicity ([1]; Level VIII, dose 700, 3 patients): none | hematological toxicity ([1]; daily x5 schedule): no hematological toxicity was seen | most commonly seen liver toxicity in the MTD ([1]; daily x5 schedule): grade 4 transaminases elevation | Maximum plasma concentrations ([2]; dose level 320 μg/m2/day): 35 to 50 ng/mL | clearance ([2]; male, human, plasma, iv infusion over 1 h, 5 consecutive days every 3 weeks, first course, 20-320 μg/m2/day, read-out: Total plasma clearance): 267 mL/min | half-life ([2]; male, human, plasma, iv infusion over 1 h, 5 consecutive days every 3 weeks, first course, read-out: terminal half-life (converted)): 27.6 min | relationship between dose and AUC ([2]; whole dose range 20-320 μg/m2/day): linear relationship
